Paper PMC10026764, “Overcoming the imatinib-resistant BCR-ABL mutants with new ureidobenzothiazole chemotypes endowed with potent and broad-spectrum anticancer activity” (Journal of Enzyme Inhibition and Medicinal Chemistry, 2023)
“And” between values parts separate entries of the source, which are not always exact repeats. Identical values can stand only once. Like-named read-outs stand apart in the source and are kept apart here.

Experiments:
BCR-ABL^WT [1] = target: T1, BCR-ABL^WT (Homo sapiens, UniProt P00519); set-up: method as in PMID 25881828; settings: reported values ref 19; cited from earlier work
BCR-ABL^T315I [2] = target: T2, BCR-ABL^T315I (Homo sapiens, UniProt P00519, T315I); settings: reported values ref 19; cited from earlier work
T2 construct: purchased Reaction Biology Corporation (RBC, Malvern, PA, USA)

K-562 cell line = test system: K-562 cell line; set-up: method as in PMID 25881828; settings: K-562, single dose 10 μM; cited from earlier work
BCR-ABL^WT [3] = target: T1, BCR-ABL^WT; assay: In vitro kinase screening (RBC), BCR-ABL^WT; assay type: biochemical; settings: 10-dose IC50 mode, 3-fold serial dilution, 10 μM ATP
BCR-ABL^T315I [4] = target: T2, BCR-ABL^T315I; assay: In vitro kinase screening (RBC), BCR-ABL^T315I; assay type: biochemical; settings: 10-dose IC50 mode, 3-fold serial dilution, 10 μM ATP
leukaemia K-562 cells = assay: MTT antiproliferative assay; settings: for GI50: Homo sapiens, K562, 72 h, read-out: GI50 K-562; for SI: selectivity index (GI50 (L132)/GI50 (K562)): MTT, 72 h
L132 normal cell = assay: MTT antiproliferative assay; settings: Homo sapiens, L132, 72 h, read-out: GI50 L132
NCI-60 cell lines = assay: NCI-60 single dose SRB assay (panel); assay type: cell-based; settings: single dose 10 μM
Source text: To gain further insights about the anticancer profile of this new ureidobenzothiazole chemotypes, the structures of all final compounds were submitted to the National Cancer Institute (NCI, Developmental Therapeutics Program, Bethesda, MD, USA). Based on NCI selection criteria, compounds 2b (AK-HW-90), 2e, and 2f were chosen for broad screening against a library of 60 human cancer cell lines, representing nine types of blood and solid cancers. Employing the highly sensitive sulforhodamine B (SRB) assay, compounds 2b, 2e, and 2f were tested initially at a single dose of 10 μM, and their detailed activities on the percentages growth of the NCI-60 cell lines were illustrated in Figure 5, and compared with that observed for the lead benzothiazole AKE-5l.

DDR1 = DDR1 (Homo sapiens, UniProt Q08345); assay: Kinase selectivity test against DDR1; assay type: biochemical
DDR1, sequence (Q08345 19-913, species assumed): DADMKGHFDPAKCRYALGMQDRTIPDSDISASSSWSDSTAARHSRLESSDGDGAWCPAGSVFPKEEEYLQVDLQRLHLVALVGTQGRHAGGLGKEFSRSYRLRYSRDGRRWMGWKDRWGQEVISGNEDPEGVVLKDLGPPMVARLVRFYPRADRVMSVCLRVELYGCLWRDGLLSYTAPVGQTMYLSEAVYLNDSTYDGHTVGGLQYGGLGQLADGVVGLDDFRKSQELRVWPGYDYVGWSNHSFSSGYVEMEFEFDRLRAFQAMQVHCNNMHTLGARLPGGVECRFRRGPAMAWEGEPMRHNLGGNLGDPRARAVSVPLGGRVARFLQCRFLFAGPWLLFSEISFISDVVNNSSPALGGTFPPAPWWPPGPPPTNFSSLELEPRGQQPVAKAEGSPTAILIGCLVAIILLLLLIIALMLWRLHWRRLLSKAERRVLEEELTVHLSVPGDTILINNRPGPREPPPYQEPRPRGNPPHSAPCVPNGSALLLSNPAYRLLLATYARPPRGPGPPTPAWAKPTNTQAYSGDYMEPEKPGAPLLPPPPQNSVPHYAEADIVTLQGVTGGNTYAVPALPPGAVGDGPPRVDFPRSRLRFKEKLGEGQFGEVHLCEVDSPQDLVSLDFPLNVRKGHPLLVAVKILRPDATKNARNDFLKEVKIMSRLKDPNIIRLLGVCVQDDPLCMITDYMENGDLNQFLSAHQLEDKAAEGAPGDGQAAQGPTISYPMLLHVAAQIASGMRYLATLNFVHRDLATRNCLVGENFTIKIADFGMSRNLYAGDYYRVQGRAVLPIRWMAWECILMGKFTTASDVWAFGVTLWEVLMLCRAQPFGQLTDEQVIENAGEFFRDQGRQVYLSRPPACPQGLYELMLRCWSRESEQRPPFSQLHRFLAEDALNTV
Protocol: On the other hand, to gain certain insights about the kinase selectivity of this array of ureidobenzothiazoles, compounds 2a and 2b were tested against DDR1 (Figure 4). Discoidin domain receptors (DDR1/2) are transmembrane receptor tyrosine kinases (RTKs), activated by fibrillar collagens. DDR1/2 and BCR-ABL share almost 61% sequence similarities in their ATP binding domains. […] This observation points out the merit of these ureidobenzothiazoles over the known BCR-ABL inhibitors in achieving exceptional selectivity towards BCR-ABL.

IC50 (BCR-ABL^WT [3]) [nM]	IC50 (BCR-ABL^T315I [4])	GI50 (leukaemia K-562 cells) [µM]	IC50 (DDR1) [nM]	SMILES	IC50 (BCR-ABL^WT [1]) [nM]	IC50 (BCR-ABL^T315I [2]) [nM]	% growth (K-562 cell line) [%]	SI: selectivity index (GI50 (L132)/GI50 (K562)) (leukaemia K-562 cells)	GI50 (L132 normal cell) [µM]	number of cancer cells with cytostatic growth inhibitory activity (% growth less than 40) (NCI-60 cell lines) [cancer cells]
2.16	8.11 nM	3.82		COc1ccccc1-c1ccc2nc(NC(=O)Nc3ccc(N4CCOCC4)cc3)sc2c1 [Compound 2c]				6.8	26.1	
		> 10		COc1ccccc1-c1ccc2nc(NC(=O)Nc3cccc(C(F)(F)F)c3)sc2c1 [Compound 2d]						
1.5	2 nM and 2.03 nM	4.52	195	COc1ccccc1-c1ccc2nc(NC(=O)Nc3ccc(N4CCN(C)CC4)cc3)sc2c1 [Compound 2a]				5.9	26.8	

Continued, molecule first:

SMILES	IC50 (BCR-ABL^WT [3]) [nM]	IC50 (BCR-ABL^T315I [4])	GI50 (leukaemia K-562 cells) [µM]	IC50 (DDR1) [nM]	IC50 (BCR-ABL^WT [1]) [nM]	IC50 (BCR-ABL^T315I [2]) [nM]	% growth (K-562 cell line) [%]	SI: selectivity index (GI50 (L132)/GI50 (K562)) (leukaemia K-562 cells)	GI50 (L132 normal cell) [µM]	number of cancer cells with cytostatic growth inhibitory activity (% growth less than 40) (NCI-60 cell lines) [cancer cells]
CNC(=O)c1cc(Oc2ccc3nc(NC(=O)NCCCN4CCN(C)CC4)sc3c2)ccn1 [AKE-5l]					18.2	39.9	10.22			
COc1ccccc1-c1ccc2nc(NC(=O)Nc3ccc(CN4CCOCC4)c(C(F)(F)F)c3)sc2c1 [Compound 2f]	74.6	226 nM	> 10							14
